Results: ChEMBL document CHEMBL1156829 (Proc Natl Acad Sci U S A, 2008)

What was measured:
Plasmodium falciparum [1] = assay: NOVARTIS: Inhibition of Plasmodium falciparum 3D7 (drug-susceptible) proliferation in erythrocyte-based infection assay; type: functional, organism-based; details: Plasmodium falciparum, 3D7
Plasmodium falciparum [2] = assay: NOVARTIS: Inhibition of Plasmodium falciparum W2 (drug-resistant) proliferation in erythrocyte-based infection assay; type: functional, organism-based; details: Plasmodium falciparum, W2; read-out: EC50
[3] = NOVARTIS: Cytotoxicity against human hepatocellular carcinoma cell line (Huh7); type: toxicity, cell-based, Huh-7; details: Huh7 cells (hepatocellular carcinoma cell line)

Compound | EC50 (Plasmodium falciparum [1]) [µM] | EC50 (Plasmodium falciparum [2]) [µM] | CC50 [3] [µM]
Cc1nc2c(-c3ccccc3)c(C)nn2c(C)c1CC(=O)NCc1ccccn1 | > 12.5 | 9.14 | > 100
COc1ccc(C2C(C(=O)Nc3cccc(C(F)(F)F)c3)c3ccccc3C(=O)N2C2CCCCC2)cc1 (stereo unspecified) | 1.83 | 1.13 | > 100
CC[N+]1(CCOc2ccc(C34CC5CC(CC(C5)C3)C4)cc2)CCCCC1 | 1.01 | 0.746 | 58.2
CC[N+](C)(CC)CCSc1nc2ccccc2c(=S)n1-c1ccc(OC)cc1 | 0.285 | 0.451 | > 10
COc1ccc(-n2nc(C(=O)NCCC3=CCCCC3)c3ccccc3c2=O)cc1 | 7.22 | > 9.81 | > 100
CCOC(=O)C1=C(C)NC2=C(C(=O)C(C(=O)OCC)C(c3cccc(OC)c3)C2)C1c1ccc([N+](=O)[O-])cc1 (stereo unspecified) | 0.0542 | 0.0372 | > 54.6
CCN(CC)c1ccc2c(C)cc(Nc3ccccc3)[o+]c2c1 | 0.239 | 0.746 | > 10
CN(CCCNc1ccnc2cc(Cl)ccc12)C(=O)C1CCC1 | 0.192 | 0.093 | 4.57
COc1ccc(/C=C2/SC(=Nc3ccccc3)NC2=O)cc1 | 0.292 | 0.332 | > 100
COc1cc(/C=C\C(=O)Nc2c3c(nn2-c2ccc(F)cc2)CSC3)cc(OC)c1OC | 0.614 | 0.0844 | > 10
CCN1CC=C2C(C#N)=C(N)C(C#N)(C#N)[C@H](c3ccc(C)s3)[C@H]2C1 | 1.68 | 0.464 | > 100
Cc1ccc(C(C(=O)NC(C)(C)C)N(C(=O)c2ccc(-c3ccccc3)[nH]2)c2ccc(C3CCCCC3)cc2)o1 (stereo unspecified) | 0.337 | 0.765 | > 10
COc1cc(OC)cc(N2C(=O)N(Cc3ccc(C(C)(C)C)cc3)c3ccccc3S2(=O)=O)c1 | 3.75 | 6.3 | > 100
COC(=O)[C@@H]1C[C@@H](NC(=O)c2ccc(OC)cc2OC)CN1Cc1ccc(C)cc1C | 0.303 | 0.126 | > 100
CCN1C(C(=O)c2ccccc2)=C(Nc2c(C)n(C)n(-c3ccccc3)c2=O)c2ccccc2S1(=O)=O | > 12.5 | 3.31 | > 100
Cc1cccc(NC(=O)CCCn2c(=O)c3cccn3c3ccccc32)c1C | 0.778 | 0.906 | > 100
COc1cc(NC(C)CCCN(Cc2ccccc2OC)S(=O)(=O)c2ccc(Br)cc2)c2ncccc2c1 (stereo unspecified) | 0.945 | 0.427 | 4.58
Oc1ccccc1C=Nc1ccccc1[Te]c1ccccc1N=Cc1ccccc1O | 0.00349 | 0.00314 | 0.552
CC(=O)N1c2ccccc2C(C)(c2ccc(Br)cc2)CC1(C)C (stereo unspecified) | 4.27 | 2.42 | 71.4
CCN(CC)CCCC(C)N=c1cc(C=Cc2ccc([N+](=O)[O-])cc2)[nH]c2ccc(OC)cc12 (stereo unspecified) | 0.0209 | 0.014 | 11.7
FC(F)(F)c1cnc(Sc2nnc(-c3ccncc3)o2)c(Cl)c1 | 1.87 | 0.976 | 83.9
CCOC(=O)c1ccc(-c2c(-c3cc(CC)c(OC)cc3O)noc2C)o1 | 0.927 | 0.433 | 13.8
CCNC(=O)NCCSc1nc(-c2ccccc2)c(-c2ccccc2)n1CC | 1.63 | 0.917 | > 100

Compound | EC50 (Plasmodium falciparum [1]) [µM] | EC50 (Plasmodium falciparum [2]) [µM] | CC50 [3] [µM]
NNc1ncnc2[nH]cnc12 | 0.303 | 0.666 | > 10
CC[C@@]1(O)C[C@H](O[C@@H]2CC(N(C)C)[C@@H](O[C@@H]3C[C@@H](O)[C@@H](O[C@@H]4CCC(=O)[C@@H](C)O4)C(C)O3)[C@@H](C)O2)c2c(cc3c(c2O)C(=O)c2c(O)ccc(O)c2C3=O)[C@H]1C(=O)OC (stereo partly specified) | 0.0877 | 0.0792 | 3.37
COc1ccc(CN(Cc2cc3cccc(C)c3[nH]c2=O)C(=S)NC2CCCCC2)cc1 | > 1.25 | 0.487 | > 10
CCOc1ccc(C(=O)Cn2ccc(=NCc3ccccc3)cc2)cc1[N+](=O)[O-] | 0.0697 | 0.121 | 20.1
Cc1ccc(C(C(=O)NC2CCCCC2)N(C(=O)Cn2nnc3ccccc32)c2ccc(S(=O)(=O)NCC3CCCO3)cc2)o1 (stereo unspecified) | > 12.3 | 1.91 | > 100
O=[N+]([O-])c1ccc(-c2cn3nc(C(F)(F)F)sc3n2)cc1 | 1.05 | 0.818 | > 10
COc1ccc(Nc2nc(NN=Cc3cccc([N+](=O)[O-])c3OC)nc(Nc3ccc([N+](=O)[O-])cc3)n2)cc1 | 0.221 | 0.635 | > 100
Cc1nccn1CC(C)C(=O)N1CCCC(n2nc(-c3cccs3)ccc2=O)C1 (stereo unspecified) | > 0.62 | > 1.25 | > 10
N#CC(=Cc1ccc(Sc2ccccc2)o1)c1nc2ccccc2[nH]1 | 1.05 | 0.501 | > 100
CCCn1c(-c2cccc(Br)c2)nc2ccccc21 | > 1.14 | > 1.22 | > 10
CN=C1S/C(=C\c2ccc(OCC(=O)O)c(OC)c2)C(=O)N1C | > 1.25 | > 0.703 | > 10
CN1CC=C(/C=C/c2c[nH]c3ccccc23)CC1 | 0.483 | 0.1 | > 10
CC(C)c1ccc(NC(=O)c2ccc(NCCCN(C)Cc3ccccc3)c([N+](=O)[O-])c2)cc1 | 2.48 | 3.2 | > 100
N#Cc1c2c(c(NCc3ccccn3)n3c1nc1ccccc13)CCCC2 | 0.223 | 0.522 | > 100
CCN1CCCC(Nc2ccnc3cc4ccccc4cc23)C1 (stereo unspecified) | 0.00824 | 0.00481 | 3.75
COc1ccc(C(=O)Nc2nonc2-c2ccc(OC)c(OC)c2)cc1Cl | 1.79 | 2.54 | > 100
CCCCc1ccc(C(=O)N(CCc2ccccc2)C(CC)c2nc3ccccc3c(=O)n2-c2ccccc2OC)cc1 (stereo unspecified) | 0.311 | 0.354 | > 6.27
Cc1ccccc1NC(c1cccc(Cl)c1)c1nnnn1C1CCCCC1 (stereo unspecified) | > 1.72 | > 1.07 | > 10
Cc1ccc(CN2CCC(O)(c3ccc4oc(C(=O)NCCc5cccc(F)c5)cc4c3)CC2)cc1 | 4.16 | 3.01 | 43.5
CC1=C(C(=O)OC(C)C)C(c2ccc(F)cc2)C2=C(CC(c3ccc(Cl)cc3)CC2=O)N1 (stereo unspecified) | 0.358 | 0.0913 | 29.7
COc1ccc(C=NNc2nc(O)cc(-c3ccccc3)n2)cc1OC | 0.632 | > 1.1 | > 10
COc1ccc(C=C2SC(=N)N(c3ccc4c(c3)OCO4)C2=O)cc1OC | > 9.75 | 2.28 | > 100
COCCNC(=S)N1CCN(S(=O)(=O)c2ccc([N+](=O)[O-])cc2)CC1 | 0.176 | 0.101 | > 100

Compound | EC50 (Plasmodium falciparum [1]) [µM] | EC50 (Plasmodium falciparum [2]) [µM] | CC50 [3] [µM]
COc1cccc(CNc2cc(C(=O)NCCNC(C)=O)cc(S(=O)(=O)N(C)C)c2)c1OC | > 0.431 | > 1.21 | > 10
Ic1nc2ccccc2s1 | > 0.295 | 1.35 | > 10
CC(=O)Nc1ccc(S(=O)(=O)Nc2ccccc2[N+](=O)[O-])cc1 | 0.677 | 1.4 | > 10
COc1cc2nc(SCC(C)C)n(CCCn3ccnc3)c(=N)c2cc1OC | 0.822 | 0.926 | 19.9
CCOC(=O)c1c[nH]c2ccc(C)cc2c1=O | 2.7 | 2.76 | > 100
COc1ccc(C2C3=C(O)CC(C)(C)CC3=Nc3[nH]nc(C)c32)cc1 (stereo unspecified) | > 3.32 | > 12.5 | > 100
CC1=C(C(=O)OC(C)C)C(c2cccc([N+](=O)[O-])c2)C2=C(CCCC2=O)N1 (stereo unspecified) | > 11.1 | 0.854 | > 100
COc1ccc(Cn2nnnc2CN2CCc3ccccc3C2)cc1 | > 0.853 | > 1.25 | > 10
COc1ccc(OC)c(-c2ccc(C(=O)N3CCN(CC=Cc4ccccc4)CC3)c(N(C)C)n2)c1 | 0.0946 | 0.145 | 32.8
COc1ccc(-c2nc3ccccc3n2C2CCN(Cc3ccc(C)o3)CC2)cc1OC | > 1.25 | 0.0267 | > 10
COc1ccc(C(=NO)C2CC2c2ccc(Cl)cc2)cc1 (stereo unspecified) | 0.735 | 0.668 | > 10
O=C(CCc1ccccc1)NCCCCNc1ccnc2cc(Cl)ccc12 | 0.142 | < 0.0138 | > 10
COc1cc(CN(CCCN2CCOCC2)C(=O)Nc2cccc(C)c2)ccc1OCc1ccccc1 | > 1.25 | 0.00839 | > 10
CC(=O)Nc1ccc(N2C(=O)CSC2c2ccc(Br)cc2)cc1 (stereo unspecified) | 2.33 | 0.865 | > 100
CCOC(=O)C1=C(C)NC2=C(C(=O)CC(c3ccc(OC)c(OC)c3)C2)C1c1ccc(F)cc1 (stereo unspecified) | 0.0183 | 0.0124 | > 100
COc1ccc(/C=C2/SC(=N)N(c3ccccc3OC)C2=O)cc1 | 0.35 | 0.291 | > 10
Cc1cccc(Nc2nc(NCc3ccco3)c3ccccc3n2)c1 | 0.266 | 0.326 | 4.93
Cc1cc(NCCN2CCCCC2)c2ccc3ccccc3c2n1 | 0.0441 | 0.081 | 15.6
Cc1ccc(-c2cc(N3CCCC3CO)n3nccc3n2)cc1 (stereo unspecified) | 1.14 | 1.25 | > 100
COc1cccc(N2C(=O)/C(=C/c3cccnc3)SC2=S)c1 | > 1.14 | > 1.25 | > 10
Cc1c(Cl)cccc1-n1c(C(C)N(CCc2ccccc2)C(=O)COc2ccccc2)nc2ccccc2c1=O (stereo unspecified) | 0.614 | 0.701 | > 10
